The text below walks through data of patent publication US20120202856A1, “SUBSTITUTED BENZIMDAZOLE DERIVATIVES USEFUL AS TRPM8 RECEPTOR MODULATORS” (priority 2011, published 2012).

For the assay, the target named is T1, canine TRPM8 (Canis lupus familiaris, UniProt Q1A7N1).
T1 construct: expressed in transfected cells
In words: In Vitro Canine TRPM8 Functional Assay (intracellular Ca2+ fluorescence, icilin activation, HEK293 cells). The note with it: for IC50: HEK293 cells expressing canine TRPM8, icilin activation, individually measured values (batches/salt forms), read-out: IC50 (nM), in vitro TRP M8 Activity. The assay is classed as cell-based. The procedure: The changes in fluorescent signal were monitored by a fluorescence plate reader, either a FLIPR™ (Molecular Devices) or FDSS (Hamamatsu). […] Cells were maintained in 5% CO2 at 37° C. At 24 hr prior to assay, cells were seeded in black wall, clear-base poly-D-lysine coated 384-well plates (BD Biosciences, NJ, USA) at a density of 5,000 cells per well in culture medium and grown overnight in 5% CO2 at 37° C. On assay day, growth media was removed, and cells were loaded with Calcium 3 Dye (Molecular Devices) for 35 min at 37° C., under 5% CO2 and then incubated for 25 min at room temperature and atmosphere. Subsequently, cells were tested for agonist-induced increases in intracellular Ca^2+ levels using FLIPR™ or FDSS. […] Maximal fluorescence intensity (FI) achieved upon addition of icilin was exported from the FLIPR™ or FDSS software and further analyzed using GraphPad Prism 3.02 (Graph Pad Software Inc., CA, U.S.A.). Basal FI was subtracted prior to normalizing data to percent of maximal response. Curves were generated using the average of quadruplicate wells for each data point using nonlinear regression of either sigmoidal dose response or sigmoidal dose response (variable slope). Finally, IC50 values were calculated with the best-fit curve determined by GraphPad Prism

Setting [1] is: HEK293, 0.2 μM test compound, individually measured values, read-out: % Inh (%) @0.2 μM, in vitro TRP M8 Activity.
[2] abbreviates: HEK293, read-out: % Inh (%) @0.2 μM, in vitro TRP M8 Activity, 0.2 μM test compound, individually measured values.

Each structure is given as a SMILES string. Several values for one entry are separate records, joined by “and”; a condition that tells them apart may be missing. Equal values may be shown once. Where a name gives a salt, the structure may show the parent alone. Read-outs that look alike come from different tables or passages of the source.

T1 sequence (Q1A7N1 1-1104): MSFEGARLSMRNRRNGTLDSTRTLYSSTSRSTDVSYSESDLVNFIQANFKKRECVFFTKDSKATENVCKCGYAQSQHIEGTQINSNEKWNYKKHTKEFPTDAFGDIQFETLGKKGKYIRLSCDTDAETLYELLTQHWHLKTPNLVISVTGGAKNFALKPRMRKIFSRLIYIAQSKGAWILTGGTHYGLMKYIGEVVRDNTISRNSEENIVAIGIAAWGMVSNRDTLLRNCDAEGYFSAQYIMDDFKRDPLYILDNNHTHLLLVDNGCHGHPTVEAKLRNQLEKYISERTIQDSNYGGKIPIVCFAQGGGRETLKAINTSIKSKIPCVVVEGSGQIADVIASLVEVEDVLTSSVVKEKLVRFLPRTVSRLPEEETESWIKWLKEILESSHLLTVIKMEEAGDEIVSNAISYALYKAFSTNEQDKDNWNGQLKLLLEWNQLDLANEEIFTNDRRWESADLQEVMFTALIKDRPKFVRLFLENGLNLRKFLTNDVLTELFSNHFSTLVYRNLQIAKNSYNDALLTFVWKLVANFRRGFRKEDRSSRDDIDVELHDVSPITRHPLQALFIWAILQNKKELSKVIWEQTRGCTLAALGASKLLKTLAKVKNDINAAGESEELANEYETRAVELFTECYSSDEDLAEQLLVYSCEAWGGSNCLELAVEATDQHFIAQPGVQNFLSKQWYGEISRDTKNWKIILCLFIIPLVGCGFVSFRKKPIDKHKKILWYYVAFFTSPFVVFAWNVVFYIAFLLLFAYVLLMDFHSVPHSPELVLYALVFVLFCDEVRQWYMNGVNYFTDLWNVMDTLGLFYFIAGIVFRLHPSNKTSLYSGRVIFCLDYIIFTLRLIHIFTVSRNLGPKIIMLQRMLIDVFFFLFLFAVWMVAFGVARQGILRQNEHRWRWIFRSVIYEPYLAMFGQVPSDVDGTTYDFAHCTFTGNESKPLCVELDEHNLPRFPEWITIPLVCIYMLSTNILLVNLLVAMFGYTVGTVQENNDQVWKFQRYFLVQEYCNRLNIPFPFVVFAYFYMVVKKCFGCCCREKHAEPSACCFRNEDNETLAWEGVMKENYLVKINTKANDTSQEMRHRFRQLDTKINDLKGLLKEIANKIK

Regarding `FC(F)(F)c1ccccc1-c1ccc2[nH]c(-c3cc(Br)no3)nc2c1` [Compound 42, 2-(3-Bromoisoxazol-5-yl)-5-(2-trifluoromethylphenyl)-1H-benzimidazole sodium salt], the IC50 came to 151 nM.

Turning to `Cn1nc(C(F)(F)F)cc1-c1nc2cc(-c3ccccc3OC(F)(F)F)ccc2[nH]1` [Compound 41, 2-(5-Trifluoromethyl-2-methyl-2H-pyrazol-3-yl)-5-(2-trifluoromethoxyphenyl)-1H-benzimidazole sodium salt], the IC50 was 133 nM.

Turning to `CC(C)n1nc(C(C)(C)C)cc1-c1nc2cc(-c3ccccc3OC(F)(F)F)ccc2[nH]1` [Compound 47, 2-(5-tert-Butyl-2-isopropyl-2H-pyrazol-3-yl)-5-(2-trifluoromethoxyphenyl)-1H-benzimidazole sodium salt], the IC50 was determined as 49.6 nM.

On to `Cn1nc(C(C)(C)C)c(Cl)c1-c1nc2cc(-c3ccccc3C(F)(F)F)cc(C(F)(F)F)c2[nH]1` [Compound 129, 2-(5-tert-Butyl-4-chloro-2-methyl-2H-pyrazol-3-yl)-7-trifluoromethyl-5-(2-trifluoromethyl-phenyl)-1H-benzimidazole hydrochloride], for which the IC50 is 6.2 nM and 4.1 nM. Under setting [1], the inhibition at 0.2 µM was found to be 99%.

Take `CC(C)(C)c1cc(-c2nc3cc(-c4ccccc4C(F)(F)F)cc(C(F)(F)F)c3[nH]2)on1` [Compound 142, 2-(3-tert-Butyl-isoxazol-5-yl)-7-trifluoromethyl-5-(2-trifluoromethyl-phenyl)-1H-benzimidazole sodium salt]: the half-maximal inhibitory concentration (IC50) is 3 nM and 3.3 nM. Moreover, under setting [2], the inhibition at 0.2 µM was determined as 99%.

With `COc1ccc(F)cc1-c1ccc2[nH]c(-c3cc(C(C)(C)C)no3)nc2c1` [Compound 105, 2-(3-tert-Butyl-isoxazol-5-yl)-5-(5-fluoro-2-methoxy-phenyl)-1H-benzimidazole hydrochloride], the IC50 was found to be 16.4 nM.

As to `Cn1nc(C(C)(C)C)c(C#N)c1-c1nc2cc(-c3ccccc3F)cc(C(F)(F)F)c2[n-]1.[Na+]` [Compound 147], under “0.2 μM test compound, individually measured values, sodium salt, 0.2 µM”, the “% Inh (%) @0.2 μM, in vitro TRP M8 Activity” value is listed as 98%.

As to `Cn1nc(C(C)(C)C)c(Cl)c1-c1nc2cc(-c3c(F)cccc3OC(F)(F)F)cc(C(F)(F)F)c2[nH]1` [Compound 126, 2-(5-tert-Butyl-4-chloro-2-methyl-2H-pyrazol-3-yl)-5-(2-fluoro-6-trifluoromethoxy-phenyl)-7-trifluoromethyl-1H-benzimidazole hydrochloride], the IC50 was 3.9 nM and 3.5 nM. For the same compound, the inhibition at 0.2 µM under setting [1] worked out at 99%.

As for `COc1ccccc1-c1ccc2[nH]c(-c3cc(C4CC4)no3)nc2c1` [Compound 15, 2-(3-cyclopropylisoxazol-5-yl)-5-(2-methoxyphenyl)-1H-benzimidazole sodium salt], the IC50 turned out to be 70 nM.

For the compound `Cc1c(C(C)(C)C)nn(C)c1-c1nc2cc(-c3c(F)cccc3OC(F)(F)F)ccc2[nH]1` [Compound 96, 2-(5-tert-Butyl-2,4-dimethyl-2H-pyrazol-3-yl)-5-(2-fluoro-6-trifluoromethoxy-phenyl)-1H-benzimidazole hydrochloride], the IC50 came to 6.6 nM.

On to `FC(F)(F)c1ccccc1-c1ccc2nc(-c3cc(C4CCCCC4)no3)[nH]c2c1` [Compound 24, 2-(3-Cyclohexylisoxazol-5-yl)-6-(2-trifluoromethylphenyl)-1H-benzimidazole hydrochloride], for which the inhibition at 0.2 µM under setting [1] worked out at 63%.

Regarding `Cn1nc(C(C)(C)C)c(C#N)c1-c1nc2cc(-c3ccccc3F)cc(C(F)(F)F)c2[n-]1.[Na+]` [Compound 147, 3-tert-Butyl-5-[(5-(2-fluoro-phenyl)-7-trifluoromethyl-1H-benzimidazol-2-yl]-1-methyl-1H-pyrazole-4-carbonitrilesodium salt], the IC50 is 5.9 nM and 4.8 nM and 5.1 nM. Besides, the inhibition at 0.2 µM under setting [1] was found to be 100%.

Turning to `Cc1c(C(C)(C)C)noc1-c1nc2cc(-c3c(F)cccc3F)ccc2[nH]1` [Compound 109, 2-(3-tert-Butyl-4-methyl-isoxazol-5-yl)-5-(2,6-difluoro-phenyl)-1H-benzimidazole hydrochloride], the IC50 was found to be 13.9 nM.

For the compound `Cc1oc(C(C)(C)C)nc1-c1nc2cc(-c3ccccc3)cc(C(F)(F)F)c2[nH]1` [Compound 157, 2-(2-tert-Butyl-5-methyl-oxazol-4-yl)-5-phenyl-7-trifluoromethyl-1H-benzimidazole hydrochloride], the inhibition at 0.2 µM under setting [1] was 41%.

For the compound `Cc1c(C(C)(C)C)nn(C)c1-c1nc2cc(-c3ccccc3C(F)(F)F)cc(Cl)c2[nH]1` [Compound 135, 2-(5-tert-Butyl-2,4-dimethyl-2H-pyrazol-3-yl)-7-chloro-5-(2-trifluoromethyl-phenyl)-1H-benzimidazole hydrochloride], the IC50 was 4 nM and 6.9 nM. For the same compound, the inhibition at 0.2 µM under setting [1] was 99%.

As for `Cn1nc(C(C)(C)C)c(Cl)c1-c1nc2cc(-c3c(C(F)(F)F)cccc3C(F)(F)F)ccc2[nH]1` [Compound 87, 5-(2,6-Bis-trifluoromethyl-phenyl)-2-(5-tert-butyl-4-chloro-2-methyl-2H-pyrazol-3-yl)-1H-benzimidazole hydrochloride], the IC50 is 5.7 nM and 8.6 nM.

Take `CC(C)(C)c1cc(-c2nc3cc(-c4ccccc4C(F)(F)F)ccc3[nH]2)n(Cc2ccccc2)n1` [Compound 48, 2-(5-tert-Butyl-2-benzyl-2H-pyrazol-3-yl)-5-(2-trifluoromethylphenyl)-1H-benzimidazole sodium salt]: the IC50 amounted to 18.4 nM.

`CC(C)(C)c1cc(-c2nc3cc(-c4c(F)cccc4OC(F)(F)F)cc(C(F)(F)F)c3[nH]2)on1` [Compound 145, 2-(3-tert-Butyl-isoxazol-5-yl)-5-(2-fluoro-6-trifluoromethoxy-phenyl)-7-trifluoromethyl-1H-benzimidazole sodium salt]: the IC50 was 3.7 nM and 8.1 nM. Further, under setting [2], the inhibition at 0.2 µM turned out to be 100%.

On to `CCOc1ccccc1-c1ccc2[nH]c(-c3cc(C(C)C)no3)nc2c1` [Compound 6, 2-(3-Isopropylisoxazol-5-yl)-5-(2-ethoxyphenyl)-1H-benzimidazole sodium salt], for which the IC50 is 64.4 nM.

`Cn1nc(C(C)(C)C)cc1-c1nc2cc(-c3ccccc3Cl)ccc2[nH]1` [Compound 59, 2-(5-tert-Butyl-2-methyl-2H-pyrazol-3-yl)-5-(2-chloro-phenyl)-1H-benzimidazole trifluoroacetic acid salt]: the IC50 is 8.3 nM.

On to `Cc1c(C(C)(C)C)noc1-c1nc2cc(-c3c(F)cccc3OC(F)(F)F)ccc2[nH]1` [Compound 110, 2-(3-tert-Butyl-4-methyl-isoxazol-5-yl)-5-(2-fluoro-6-trifluoromethoxy-phenyl)-1H-benzimidazole hydrochloride], for which the IC50 worked out at 14.3 nM.

Take `CC(C)(C)c1cc(-c2nc3cc(-c4ccccc4Cl)cc(C(F)(F)F)c3[nH]2)on1` [Compound 141, 2-(3-tert-Butyl-isoxazol-5-yl)-5-(2-chloro-phenyl)-7-trifluoromethyl-1H-benzimidazole hydrochloride]: the IC50 was 5.4 nM and 8.7 nM. The inhibition at 0.2 µM under setting [1] was 99%.

For the compound `CC(C)(C)c1cc(-c2nc3cc(-c4ccccc4F)ccc3[nH]2)on1` [Compound 66, 2-(3-tert-Butyl-isoxazol-5-yl)-5-(2-fluoro-phenyl)-1H-benzimidazole trifluoroacetic acid salt], the IC50 is 24 nM and 35.7 nM.

As for `COc1ccccc1-c1ccc2[nH]c(-c3cc(C(C)C)no3)nc2c1` [Compound 2, 2-(3-Isopropylisoxazol-5-yl)-5-(2-methoxyphenyl)-1H-benzimidazole sodium salt], the IC50 came to 16 nM.

The term IC50 denotes the concentration that inhibits the measured activity by half.
